Where two headings read alike, the source gives them in different places. Starred links: 1 amine or outer side, 2 acyl side, 3 side chain; linkers in the order of their positions; H or OH if unused. Positions of bridges follow the written chain, without caps; N, C: chain ends. Non-standard residues stand in square brackets, D forms with d. Residues, ends and D or L forms follow the SMILES beside them. Groups on a side chain read outwards from the residue. ξ: configuration not given here. *: point of attachment. NH(Fluorescein-5-yl) = O=C1OC2(c3ccc(O)cc3Oc3cc(O)ccc32)c2ccc(N*)cc21; Tyr(3-I) = N[C@@H](Cc1ccc(O)c(I)c1)C(=O)O; Mca = COc1ccc2c(CC(=O)*)cc(=O)oc2c1; Hyp = O=C(O)[C@@H]1C[C@@H](O)CN1; Ile(3ξ) = CCC(C)[C@H](N)C(=O)O; CO = O=C([*:1])[*:2]; Ahx = NCCCCCC(=O)O; βAla = NCCC(=O)O
Molecular target: T1, DD(E) fragment of fibrin (Homo sapiens, UniProt P02671+P02675+P02679, DEL433-453)
T1 construct: complex of the crosslinked D domains of adjacent fibrin monomers with the central E domain of fibrin
T1 sequence (P02671 130-216 limits assumed, stated change not applied): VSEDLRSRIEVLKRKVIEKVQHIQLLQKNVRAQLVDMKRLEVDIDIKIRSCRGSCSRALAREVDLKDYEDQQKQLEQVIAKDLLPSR
T1 sequence (P02671 36-97 limits assumed, stated change not applied): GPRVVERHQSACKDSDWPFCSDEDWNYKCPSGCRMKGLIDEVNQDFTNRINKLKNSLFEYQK
T1 sequence (P02675 164-491 limits assumed, stated change not applied): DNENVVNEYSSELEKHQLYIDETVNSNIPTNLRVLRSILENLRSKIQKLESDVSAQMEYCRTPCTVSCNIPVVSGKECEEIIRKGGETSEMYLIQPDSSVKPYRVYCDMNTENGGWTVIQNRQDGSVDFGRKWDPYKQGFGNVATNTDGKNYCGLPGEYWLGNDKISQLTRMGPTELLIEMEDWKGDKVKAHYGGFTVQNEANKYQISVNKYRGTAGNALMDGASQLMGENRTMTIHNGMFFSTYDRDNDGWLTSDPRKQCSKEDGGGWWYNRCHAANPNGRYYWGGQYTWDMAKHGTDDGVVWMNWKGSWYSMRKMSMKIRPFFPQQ
T1 sequence (P02675 45-152 limits assumed, stated change not applied): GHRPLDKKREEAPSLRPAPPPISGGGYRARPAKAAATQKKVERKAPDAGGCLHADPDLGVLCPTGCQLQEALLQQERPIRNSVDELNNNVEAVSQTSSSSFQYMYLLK
T1 sequence (P02679 114-432 limits assumed, stated change not applied): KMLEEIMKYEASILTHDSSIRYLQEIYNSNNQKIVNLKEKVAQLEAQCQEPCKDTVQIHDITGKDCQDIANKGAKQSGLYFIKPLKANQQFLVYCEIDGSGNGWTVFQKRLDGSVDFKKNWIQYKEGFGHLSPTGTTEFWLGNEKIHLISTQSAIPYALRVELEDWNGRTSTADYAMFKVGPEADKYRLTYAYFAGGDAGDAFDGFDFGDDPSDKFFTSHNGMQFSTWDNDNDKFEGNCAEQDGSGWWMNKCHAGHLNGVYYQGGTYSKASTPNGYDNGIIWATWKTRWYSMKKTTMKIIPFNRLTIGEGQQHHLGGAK
T1 sequence (P02679 27-88 limits assumed, stated change not applied): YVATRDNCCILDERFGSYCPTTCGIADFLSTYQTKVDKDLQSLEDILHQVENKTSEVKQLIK
Assay: Dissociation constant (Kd) of optical agent for DD(E) fragment of fibrin
Format: binding
Description: Optical agents of the invention include an OD and a FBM covalently bound to each other, either directly or via a linker (OD-L-FBM). The FBM can be a small molecule or a peptide. As used herein, the term “peptide” refers to a chain of amino acids that is about 2 to about 75 amino acids in length (e.g., 3 to 50 amino acids). Affinity of a peptide for fibrin can be expressed in terms of its dissociation constant (Kd), which is the equilibrium constant for the dissociation reaction of the peptide from the DD(E) fragment of fibrin. The term “DD(E) fragment of fibrin” refers to a fibrin subcomponent generated by proteolytic degradation of fibrin with plasmin or trypsin. The DD(E) fragment is a complex of the crosslinked D domains of adjacent fibrin monomers with the central E domain of fibrin (See, for example, Spraggon et al., Nature 389:455462 (1997)). Since DD(E) is a product resulting from the proteolysis of fibrin, one of skill in the art will understand that there may be some slight heterogeneity in its composition. The DD(E) fragment can be biotinylated and immobilized via avidin to a solid substrate (e.g., a multi-well plate). Peptides can be incubated with the immobilized DD(E) fragment in a suitable buffer and binding detected using known methodology. Methods for determining the dissociation constant of the peptide for DD(E) are set forth in WO 01/09188.
As a result of the FBM having affinity for fibrin, the optical agent also has affinity for fibrin. The term “affinity” refers to the capacity of the optical agent to be taken up by, retained by, or bound to the fibrin in the lesion. The affinity of an optical agent can be expressed in terms of its Kd, which is the equilibrium constant for the dissociation reaction of the optical agent from fibrin, and determined as discussed above for the peptide. The dissociation constant of the optical agent for DD(E) can have a value less than about 10 μM (e.g., 0.1 μM to 10 μM). In one embodiment, the dissociation constant value is less than about 5 μM. In another embodiment, the dissociation constant value is less than about 1 μM. The dissociation constant also may have a value less than about 0.3 μM (e.g., 0.2 μM).
In the methods of the present invention, the optical agent forms a fibrin-optical agent complex at the site of the lesion. The ability of the optical agent to form a fibrin-optical agent complex may be measured by examining the optical agent's dissociation constant (Kd) for a DD(E) fragment of fibrin as discussed above.

[1] = 24° C., read-out: Kd (μM) vs. DD(E) @ 24° C.

Structure (SMILES)	Kd (read-out: Kd vs. DD(E)) [µM]	Kd [1] [µM]
CC[C@H](C)[C@H](NC(=O)[C@H](Cc1c[nH]cn1)NC(=O)[C@@H]1CSSC[C@H](NC(=O)[C@H](Cc2c[nH]cn2)NC(=O)[C@H](Cc2ccccc2)NC(=O)CNC(=O)CCCCCNC(=O)Nc2ccc3c(c2)C(=O)OC32c3ccc(O)cc3Oc3cc(O)ccc32)C(=O)N2C[C@H](O)C[C@H]2C(=O)N[C@@H](Cc2ccc(O)c(I)c2)C(=O)N[C@@H](CC(=O)O)C(=O)N[C@@H](CC(C)C)C(=O)N1)C(=O)N[C@@H](CC(C)C)C(N)=O [Structure III] ({NH(Fluorescein-5-yl)-CO-Ahx}-GFHC[Hyp][Tyr(3-I)]DLCHIL-NH2; disulfide 4-9)		0.1
CC[C@H](C)[C@H](NC(=O)[C@H](Cc1c[nH]cn1)NC(=O)[C@@H]1CSSC[C@H](NC(=O)[C@H](Cc2c[nH]cn2)NC(=O)[C@H](Cc2ccccc2)NC(=O)CCCCCNC(=O)Nc2ccc3c(c2)C(=O)OC32c3ccc(O)cc3Oc3cc(O)ccc32)C(=O)N2C[C@H](O)C[C@H]2C(=O)N[C@@H](Cc2ccc(O)c(I)c2)C(=O)N[C@@H](CC(=O)O)C(=O)N[C@@H](CC(C)C)C(=O)N1)C(=O)N[C@@H](CC(C)C)C(N)=O [Structure II] ({NH(Fluorescein-5-yl)-CO-Ahx}-FHC[Hyp][Tyr(3-I)]DLCHIL-NH2; disulfide 3-8)		0.1
CC[C@H](C)[C@H](NC(=O)[C@H](Cc1c[nH]cn1)NC(=O)[C@@H]1CSSC[C@H](NC(=O)[C@H](Cc2c[nH]cn2)NC(=O)[C@H](Cc2ccccc2)NC(=O)[C@H](Cc2c[nH]c3ccccc23)NC(=O)CCCCCNC(=O)Nc2ccc3c(c2)C(=O)OC32c3ccc(O)cc3Oc3cc(O)ccc32)C(=O)N2C[C@H](O)C[C@H]2C(=O)N[C@@H](Cc2ccc(O)c(I)c2)C(=O)N[C@@H](CC(=O)O)C(=O)N[C@@H](CC(C)C)C(=O)N1)C(=O)N[C@@H](CC(C)C)C(N)=O [Structure IV] ({NH(Fluorescein-5-yl)-CO-Ahx}-WFHC[Hyp][Tyr(3-I)]DLCHIL-NH2; disulfide 4-9)		0.06
CC[C@H](C)[C@H](NC(=O)[C@H](Cc1c[nH]cn1)NC(=O)[C@@H]1CSSC[C@H](NC(=O)[C@H](Cc2c[nH]cn2)NC(=O)[C@H](Cc2ccccc2)NC(=O)CNC(=O)CNC(=O)[C@@H](N)CCCCNC(=O)Nc2ccc3c(c2)C(=O)OC32c3ccc(O)cc3Oc3cc(O)ccc32)C(=O)N2C[C@H](O)C[C@H]2C(=O)N[C@@H](Cc2ccc(O)c(I)c2)C(=O)N[C@@H](CC(=O)O)C(=O)N[C@@H](CC(C)C)C(=O)N1)C(=O)N[C@@H](CC(C)C)C(N)=O [Structure IX] (H-K([CO-NH(Fluorescein-5-yl)])GGFHC[Hyp][Tyr(3-I)]DLCHIL-NH2; disulfide 6-11)		0.1
CC[C@H](C)[C@H](NC(=O)[C@H](Cc1c[nH]cn1)NC(=O)[C@@H]1CSSC[C@H](NC(=O)[C@H](Cc2c[nH]cn2)NC(=O)[C@H](Cc2ccccc2)NC(=O)CCNC(=O)Nc2ccc3c(c2)C(=O)OC32c3ccc(O)cc3Oc3cc(O)ccc32)C(=O)N2C[C@H](O)C[C@H]2C(=O)N[C@@H](Cc2ccc(O)c(I)c2)C(=O)N[C@@H](CC(=O)O)C(=O)N[C@@H](CC(C)C)C(=O)N1)C(=O)N[C@@H](CC(C)C)C(N)=O [Structure I] ({NH(Fluorescein-5-yl)-CO-βAla}-FHC[Hyp][Tyr(3-I)]DLCHIL-NH2; disulfide 3-8)		0.1
CC[C@H](C)[C@H](NC(=O)[C@H](Cc1c[nH]cn1)NC(=O)[C@@H]1CSSC[C@H](NC(=O)[C@H](Cc2c[nH]cn2)NC(=O)[C@H](Cc2ccccc2)NC(=O)CNC(=O)CNC(=O)CCCCCNC(=O)Nc2ccc3c(c2)C(=O)OC32c3ccc(O)cc3Oc3cc(O)ccc32)C(=O)N2C[C@H](O)C[C@H]2C(=O)N[C@@H](Cc2ccc(O)c(I)c2)C(=O)N[C@@H](CC(=O)O)C(=O)N[C@@H](CC(C)C)C(=O)N1)C(=O)N[C@@H](CC(C)C)C(N)=O [Structure V] ({NH(Fluorescein-5-yl)-CO-Ahx}-GGFHC[Hyp][Tyr(3-I)]DLCHIL-NH2; disulfide 5-10)		0.09

The next lines start with results.

Kd (read-out: Kd vs. DD(E)) [µM]	Structure (SMILES)	Kd [1] [µM]
0.2	CCC(C)[C@H](NC(=O)[C@H](Cc1c[nH]c2ccccc12)NC(=O)[C@@H]1CSSC[C@H](NC(=O)[C@H](CCC(=O)O)NC(=O)[C@H](Cc2c[nH]c3ccccc23)NC(=O)[C@@H](CCC(N)=O)NC(=O)CCCCCNC(=O)Cc2cc(=O)oc3cc(OC)ccc23)C(=O)N2CCC[C@H]2C(=O)N[C@@H](Cc2ccc(O)cc2)C(=O)NCC(=O)N[C@@H](CC(C)C)C(=O)N1)C(=O)N[C@@H](CCC(N)=O)C(N)=O (some centres unmarked) [Structure XIII] ({Mca-Ahx}-[dQ]WECPYGLCW[Ile(3ξ)]Q-NH2; disulfide 4-9)	
6.6	COc1ccc2c(CC(=O)NCCCCCC(=O)N[C@@H](CC(C)C)C(=O)N3CCC[C@H]3C(=O)N[C@H]3CSSC[C@@H](C(=O)N[C@@H](CC(C)C)C(=O)N[C@@H](CC(=O)O)C(N)=O)NC(=O)[C@H](C(C)O)NC(=O)CNC(=O)[C@H](Cc4ccc(O)cc4)NC(=O)[C@H](Cc4ccc(O)cc4)NC(=O)[C@H](CC(=O)O)NC3=O)cc(=O)oc2c1 (some centres unmarked) [Structure XII]	

— patent US20060148683A1, “Detection and treatment of intravascular lesions” (priority 2001, published 2006)
